Data on 45 compounds can be found in patent US20090069565A1, “NEW INDOLE DERIVATIVES AS FACTOR XA INHIBITORS” (priority 2001, published 2009).

Where two headings read alike, the source gives them in different places.

In the assay the target is human factor Xa (Homo sapiens, UniProt P00742). Description: Factor Xa assay (chromogenic, substrate S-2765).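 Also: purified enzyme preincubated with inhibitor for 10 min before substrate addition, final reaction volume 100 µl.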 Format: biochemical.
[1] abbreviates: inhibition constant for factor Xa, purified enzyme 0.5 nM, substrate S-2765 140 μM, 25° C., pH 7.8, Ki=IC50/{1+(substrate concentration/Km)}, read-out: Ki(FXa).

The Ki is the equilibrium dissociation constant of an inhibitor or competing ligand from its target.

Chain of human factor Xa (P00742 235-488 limits assumed): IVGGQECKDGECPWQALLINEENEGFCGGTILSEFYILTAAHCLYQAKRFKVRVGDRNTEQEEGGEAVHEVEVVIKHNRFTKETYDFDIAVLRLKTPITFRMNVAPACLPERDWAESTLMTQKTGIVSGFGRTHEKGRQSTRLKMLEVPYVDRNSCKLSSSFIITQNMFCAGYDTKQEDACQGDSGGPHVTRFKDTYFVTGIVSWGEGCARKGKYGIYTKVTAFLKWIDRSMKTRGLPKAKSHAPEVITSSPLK
Chain of human factor Xa (P00742 41-179 partner limits assumed): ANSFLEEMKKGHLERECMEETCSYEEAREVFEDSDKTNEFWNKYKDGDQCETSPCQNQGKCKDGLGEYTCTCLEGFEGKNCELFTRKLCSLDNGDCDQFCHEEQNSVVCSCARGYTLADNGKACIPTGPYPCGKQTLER

Turning to `CC(C)N1CCC(NC(=O)c2cc3cc(S(C)(=O)=O)ccc3n2Cc2cc(-c3ccc(Cl)s3)on2)CC1` [Example 2], the Ki under setting [1] is 20 nM. Consider `CC(C)N1CCC(NC(=O)c2cc3cc([N+](=O)[O-])ccc3n2Cc2cc(-c3ccc(Cl)s3)on2)CC1` [Example 3], for which the Ki under setting [1] came to 1 nM. On the same count and under the same terms, for `CC(C)N1CCC(NC(=O)c2cc3cc(OCc4ccccc4)ccc3n2Cc2cc(-c3ccc(Cl)s3)on2)CC1` [Example 4] the value was 834 nM; for `CC(C)N1CCC(NC(=O)c2cc3cc(Cl)ccc3n2Cc2cc(-c3ccc(Cl)s3)on2)CC1` [Example 5], 5 nM. For the compound `COc1ccc2c(c1)cc(C(=O)NC1CCN(C(C)C)CC1)n2Cc1cc(-c2ccc(Cl)s2)on1` [Example 6], the Ki (read-out: Ki(FXa)) was 13 nM. For `COc1ccc2cc(C(=O)NC3CCN(C(C)C)CC3)n(Cc3cc(-c4ccc(Cl)s4)on3)c2c1` [Example 7], the Ki (read-out: Ki(FXa)) turned out to be 4 nM.

As to `Cc1ccc2c(c1)cc(C(=O)NC1CCN(C(C)C)CC1)n2Cc1cc(-c2ccc(Cl)s2)on1` [Example 8], under setting [1], the Ki came to 9 nM. Regarding `COc1cc(OC)c2cc(C(=O)NC3CCN(C(C)C)CC3)n(Cc3cc(-c4ccc(Cl)s4)on3)c2c1` [Example 9], under “read-out: Ki(FXa)”, the Ki was 3 nM. For `COc1cc2cc(C(=O)NC3CCN(C(C)C)CC3)n(Cc3cc(-c4ccc(Cl)s4)on3)c2cc1OC` [Example 10], the Ki (read-out: Ki(FXa)) is 182 nM. Take `CC(C)N1CCC(NC(=O)c2cc3cccc([N+](=O)[O-])c3n2Cc2cc(-c3ccc(Cl)s3)on2)CC1` [Example 11]: the Ki under setting [1] is 0.1 nM.

For `CC(C)N1CCC(NC(=O)c2cc3cc(OC(F)(F)F)ccc3n2Cc2cc(-c3ccc(Cl)s3)on2)CC1` [Example 12], the Ki (read-out: Ki(FXa)) was found to be 114 nM.

With `CC(C)N1CCC(NC(=O)c2cc3cccc(NC(=O)C(C)(C)C)c3n2Cc2cc(-c3ccc(Cl)s3)on2)CC1` [Example 14], the Ki (read-out: Ki(FXa)) was found to be 1720 nM. Regarding `COc1cccc2c1cc(C(=O)NC1CCN(C(C)C)CC1)n2Cc1cc(-c2ccc(Cl)s2)on1` [Example 15], the inhibition constant (Ki) (read-out: Ki(FXa)) was determined as 3.5 nM. For `CC(C)N1CCC(NC(=O)c2c(-c3ccccc3)c3ccccc3n2Cc2cc(-c3ccc(Cl)s3)on2)CC1` [Example 16], under setting [1], the Ki worked out at 55 nM. For the compound `COc1cc2cc(C(=O)NC3CCN(C(C)C)CC3)n(Cc3cc(-c4ccc(Cl)s4)on3)c2cc1O` [Example 17], the Ki (read-out: Ki(FXa)) worked out at 1970 nM.

Turning to `CC(C)N1CCC(NC(=O)c2cc3c(F)cc(F)cc3n2Cc2cc(-c3ccc(Cl)s3)on2)CC1` [Example 18], the Ki (read-out: Ki(FXa)) is 16 nM. On the same count and under the same terms, for `CC(C)N1CCC(NC(=O)c2cc3c(OCc4ccccc4)cccc3n2Cc2cc(-c3ccc(Cl)s3)on2)CC1` [Example 19] the value was 50 nM.

Regarding `CC(C)N1CCC(NC(=O)c2cc3cccc(Cl)c3n2Cc2cc(-c3ccc(Cl)s3)on2)CC1` [Example 20], the inhibitory constant (Ki) turned out to be 7 nM.

As for `CC(C)N1CCC(NC(=O)c2cc3ccc(Cl)cc3n2Cc2cc(-c3ccc(Cl)s3)on2)CC1` [Example 21], the Ki under setting [1] amounted to 7 nM.

Regarding `CCc1ccc2c(c1)cc(C(=O)NC1CCN(C(C)C)CC1)n2Cc1cc(-c2ccc(Cl)s2)on1` [Example 22], the Ki (read-out: Ki(FXa)) was 217 nM. As for `CC(C)N1CCC(NC(=O)c2cc3cc(F)ccc3n2Cc2cc(-c3ccc(Cl)s3)on2)CC1` [Example 23], the Ki under setting [1] is 3 nM.

As for `CC(C)N1CCC(NC(=O)c2c(-c3ccccc3)c3cc([N+](=O)[O-])ccc3n2Cc2cc(-c3ccc(Cl)s3)on2)CC1` [Example 24], the Ki (read-out: Ki(FXa)) is 132 nM.

Consider `CC(C)N1CCC(NC(=O)c2c(-c3ccccc3)c3cc(Cl)ccc3n2Cc2cc(-c3ccc(Cl)s3)on2)CC1` [Example 25], for which, under “read-out: Ki(FXa)”, the Ki is 336 nM.

In the case of `CC(C)N1CCC(NC(=O)c2cc3cc(F)cc(F)c3n2Cc2cc(-c3ccc(Cl)s3)on2)CC1` [Example 26], under “read-out: Ki(FXa)”, the Ki amounted to 0.1 nM.

For the compound `CC(C)N1CCC(NC(=O)c2cc3cc([N+](=O)[O-])cc([N+](=O)[O-])c3n2Cc2cc(-c3ccc(Cl)s3)on2)CC1` [Example 27], the Ki (read-out: Ki(FXa)) came out at 0.2 nM. For the compound `O=C(NC1CCN(c2ccncc2)CC1)c1cc2ccccc2n1Cc1cc(-c2ccc(Cl)s2)on1` [Example 28, 1-[5-(5-Chloro-thiophen-2-yl)-isoxazol-3-ylmethyl]-1H-indole-2-carboxylic acid (3,4,5,6-tetrahydro-2H-[1,4′]bipyridinyl-4-yl)-amide], under setting [1], the Ki stood at 14 nM. On to `Cc1cccc2cc(C(=O)NC3CCN(c4ccncc4)CC3)n(Cc3cc(-c4ccc(Cl)s4)on3)c12` [Example 29, 1-[5-(5-Chloro-thiophen-2-yl)-isoxazol-3-ylmethyl]-7-methyl-1H-indole-2-carboxylic acid (3,4,5,6-tetrahydro-2H-[1,4′]bipyridinyl-4-yl)-amide], for which the Ki (read-out: Ki(FXa)) is 19 nM. Turning to `O=C(NC1CCN(c2ccncc2)CC1)c1cc2cc([N+](=O)[O-])ccc2n1Cc1cc(-c2ccc(Cl)s2)on1` [Example 30, 1-[5-(5-Chloro-thiophen-2-yl)-isoxazol-3-ylmethyl]-5-nitro-1H-indole-2-carboxylic acid (3,4,5,6-tetrahydro-2H-[1,4′]bipyridinyl-4-yl)-amide], the Ki (read-out: Ki(FXa)) was 25 nM.

As for `O=C(c1cc2ccccc2n1Cc1cc(-c2ccc(Cl)s2)on1)N1CCC(Nc2ccncc2)CC1` [Example 31, {1-[5-(5-Chloro-thiophen-2-yl)-isoxazol-3-ylmethyl]-1H-indol-2-yl}-[4-(pyridin-4-ylamino)-piperidin-1-yl]-methanone], the Ki under setting [1] worked out at 18 nM. On to `O=C(c1cc2cc([N+](=O)[O-])ccc2n1Cc1cc(-c2ccc(Cl)s2)on1)N1CCC(Nc2ccncc2)CC1` [Example 32, {1-[5-(5-Chloro-thiophen-2-yl)-isoxazol-3-ylmethyl]-5-nitro-1H-indol-2-yl}-[4-(pyridin-4-ylamino)-piperidin-1-yl]-methanone], for which the Ki (read-out: Ki(FXa)) turned out to be 37 nM. On the same count and under the same terms, next, `Cc1cccc2cc(C(=O)N3CCC(Nc4ccncc4)CC3)n(Cc3cc(-c4ccc(Cl)s4)on3)c12` [Example 33, {1-[5-(5-Chloro-thiophen-2-yl)-isoxazol-3-ylmethyl]-7-methyl-1H-indol-2-yl}-[4-(pyridin-4-ylamino)-piperidin-1-yl]-methanone]: 11 nM; `Cc1cccc2cc(C(=O)N3CCC(NC(C)C)CC3)n(Cc3cc(-c4ccc(Cl)s4)on3)c12` [Example 35, {1-[5-(5-Chloro-thiophen-2-yl)-isoxazol-3-ylmethyl]-7-methyl-1H-indol-2-yl}-(4-isopropylamino-piperidin-1-yl)-methanone]: 502 nM. For `CCN1CCC(NC(=O)c2cc3ccccc3n2Cc2cc(-c3ccc(Cl)s3)on2)CC1` [Example 36, 1-[5-(5-Chloro-thiophen-2-yl)-isoxazol-3-ylmethyl]-1H-indole-2-carboxylic acid (1-ethyl-piperidin-4-yl)-amide], the Ki under setting [1] turned out to be 18 nM. With `CCN1CCC(NC(=O)c2cc3cccc(C)c3n2Cc2cc(-c3ccc(Cl)s3)on2)CC1` [Example 37, 1-[5-(5-Chloro-thiophen-2-yl)-isoxazol-3-ylmethyl]-7-methyl-1H-indole-2-carboxylic acid (1-ethyl-piperidin-4-yl)-amide], the Ki (read-out: Ki(FXa)) came out at 3 nM. As to `O=C(c1cc2ccccc2n1Cc1cc(-c2ccc(Cl)s2)on1)N1CCC(N2CCCC2)CC1` [Example 38, {1-[5-(5-Chloro-thiophen-2-yl)-isoxazol-3-ylmethyl]-1H-indol-2-yl}-(4-pyrrolidin-1-yl-piperidin-1-yl)-methanone], the Ki (read-out: Ki(FXa)) worked out at 701 nM. `CN1CCC(N2CCN(C(=O)c3cc4ccccc4n3Cc3cc(-c4ccc(Cl)s4)on3)CC2)CC1` [Example 39, {1-[5-(5-Chloro-thiophen-2-yl)-isoxazol-3-ylmethyl]-1H-indol-2-yl}-[4-(1-methyl-piperidin-4-yl)-piperazin-1-yl]-methanone]: the Ki (read-out: Ki(FXa)) was determined as 2000 nM. As to `O=C(NCC1CC(c2ccncc2)=NO1)c1cc2ccccc2n1Cc1cc(-c2ccc(Cl)s2)on1` (stereo not drawn) [Example 41, 1-[5-(5-Chloro-thiophen-2-yl)-isoxazol-3-ylmethyl]-1H-indole-2-carboxylic acid (3-pyridin-4-yl-4,5-dihydro-isoxazol-5-ylmethyl)-amide], the Ki (read-out: Ki(FXa)) came to 1030 nM.

In the case of `O=C(c1cc2ccccc2n1Cc1cc(-c2ccc(Cl)s2)on1)N1CCN(Cc2ccncc2)CC1` [Example 43, {1-[5-(5-Chloro-thiophen-2-yl)-isoxazol-3-ylmethyl]-1H-indol-2-yl}-(4-pyridin-4-ylmethyl-piperazin-1-yl)-methanone], the Ki (read-out: Ki(FXa)) turned out to be 504 nM.

On to `O=C(NCC1CCN(c2ccncc2)CC1)c1cc2ccccc2n1Cc1cc(-c2ccc(Cl)s2)on1` [Example 47, 1-[5-(5-Chloro-thiophen-2-yl)-isoxazol-3-ylmethyl]-1H-indole-2-carboxylic acid (3,4,5,6-tetrahydro-2H-[1,4′]bipyridinyl-4-ylmethyl)-amide], for which the Ki under setting [1] is 64 nM. As to `O=C(NC1CCN(C2CC2)CC1)c1cc2ccccc2n1Cc1cc(-c2ccc(Cl)s2)on1` [Example 48, 1-[5-(5-Chloro-thiophen-2-yl)-isoxazol-3-ylmethyl]-1H-indole-2-carboxylic acid (1-cyclopropyl-piperidin-4-yl)-amide], the Ki under setting [1] was found to be 27 nM.

In the case of `COc1cccc(Cn2c(C(=O)NCC3CCN(c4ccncc4)CC3)cc3ccccc32)c1` [Example 55], the Ki (read-out: Ki(FXa)) was found to be 1700 nM. The same measure, in the same setting: next, `COc1cccc(Cn2c(C(=O)NC3CCN(C(C)C)CC3)cc3c(OC)cccc32)c1` [Example 66, 4-Methoxy-1-(3-methoxy-benzyl)-1H-indole-2-carboxylic acid (1-isopropyl-piperidin-4-yl)-amide]: 43 nM; `COc1cccc(Cn2c(C(=O)NC3CCN(C(C)C)CC3)cc3cc(Cl)ccc32)c1` [Example 67, 5-Chloro-1-(3-methoxy-benzyl)-1H-indole-2-carboxylic acid (1-isopropyl-piperidin-4-yl)-amide]: 187 nM; `COc1cccc(Cn2c(C(=O)NC3CCN(C(C)C)CC3)cc3cc(C)ccc32)c1` [Example 69, 1-(3-Methoxy-benzyl)-5-methyl-1H-indole-2-carboxylic acid (1-isopropyl-piperidin-4-yl)-amide]: 159 nM. Still for that read-out and setting: for `COc1cccc(Cn2c(C(=O)NC3CCN(C(C)C)CC3)cc3cc(OCc4ccccc4)ccc32)c1` [Example 70] the value was 114 nM.
